Reference: patent publication US20230303599A1, “PRODRUGS OF PHOSPHONAMIDE NUCLEOTIDE ANALOGUES AND THEIR PHARMACEUTICAL USE” (priority 2020, published 2023)
Converted amounts (≈) assume the structure as drawn.

Tests used:
[1] = Kinetic solubility analysis; format: physicochemical; details: 1× PBS, 24.2 °C, aqueous buffer, kinetic from dmso stock; pH 7.4 PBS, 1% DMSO, 24-hour incubation at ambient temperature
Procedure: Example 108: Kinetic Solubility Analysis
Buffer Preparation: 0.1 N HCl: Hydrochloric acid, 0.1 N standardized solution (MP Biomedicals part number 199569). 1×PBS, pH 7.4: Phosphate Buffered Saline (PBS) solution 10× (Fisher Bioreagent part number BP399-500) 50 mL was added to approximately 450 mL HPLC grade H2O. The volume of the solution was then adjusted to 500 mL for a total dilution factor of 1:10 and a final PBS concentration of 1×.
The final DMSO concentration was 1.0% (v/v) and maximum theoretical compound concentration is 100 μM (for compound stock concentration of 10 mM). The filter plate was sealed. Following 24-hour incubation at ambient temperature (24.2-27.5° C.), the samples were vacuum filtered and the filtrates were collected in a 96 well polypropylene plate for analysis. The collection plate was sealed for analysis. Filtrates were injected into the Antek 8060 chemiluminescent nitrogen detector for quantification. The results are reported in μM.
The filtrates were quantified with respect to this calibration curve. Each calculated solubility value was corrected for background nitrogen present in the DMSO and in the medium used to prepare the sample. All reported values for compounds containing adjacent nitrogen atoms in a ring structure were increased by approximately 25%.

[2] = Cytotoxicity assay in MT-4 cells; format: cell-based; details: human, uninfected MT-4 cells, average of at least two independent experiments, read-out: MT4 CC50
Procedure: Compounds were tested in a high-throughput 384-well assay format for their ability to inhibit the replication of HIV-1 (IIIB) in MT-4 cells. Compounds were serially diluted (1:3) in DMSO on 384-well polypropylene plates and further diluted 200-fold into complete RPMI media (10% FBS, 1% P/S) using the Biotek Micro Flow and Labcyte ECHO acoustic dispenser. Each plate contained up to 8 test compounds, with negative (no drug) and positive (5 μM AZT) controls. MT-4 cells were pre-treated with 10 μL of either RPMI (mock-infected) or a fresh 1:250 dilution of HIV-1 IIIB concentrated virus stock. Infected and uninfected MT-4 cells were further diluted in complete RPMI media and added to each plate using a Micro Flow dispenser. After 5 days incubation in a humidified and temperature-controlled incubator (37° C.), Cell Titer Glo (Promega) was added to the assay plates and chemiluminescence read using an Envision plate-reader. EC50 values were defined as the compound concentration that causes a 50% decrease in luminescence signal and were calculated using a sigmoidal dose-response model to generate curve fits and are shown in Table 1.
Example 105: Cytotoxicity Assay in MT-4 Cells
Assays were performed as described in Example 104 except uninfected MT-4 cells were added to each well containing test compound. In addition, 10 μM puromycin was added to the last column of each assay plate to assess a base level of cytotoxicity.

| Structure (SMILES) | solubility kinetic at 24 h [1] [µg/mL] | CC50 at 5 days [2] [µM] |
| --- | --- | --- |
| C[C@H](Cn1cnc2c(N)ncnc21)OCP(=O)(N[C@@](C)(Cc1ccccc1)C(=O)OCC1CCCCC1)N[C@@](C)(Cc1ccccc1)C(=O)OCC1CCCCC1 [Example 15, Bis(cyclohexylmethyl) 2,2′-((((((R)-1-(6-amino-9H-purin-9-yl)propan-2-yl)oxy)methyl)phosphoryl)bis(azanediyl))(2S,2'S)-bis(2-methyl-3-phenylpropanoate)] | 2 (≈ 2.49 µM) | 4.36 |
| CCCCCCOC(=O)C(C)(C)NP(=O)(CO[C@H](C)Cn1cnc2c(N)ncnc21)N[C@]1(C(=O)OCCCCCC)C[C@H]1CC (stereo partly drawn) [Example 16, Hexyl (1R,2R)-1-((((((R)-1-(6-amino-9H-purin-9-yl)propan-2-yl)oxy)methyl)((1-(hexyloxy)-2-methyl-1-oxopropan-2-yl)amino)phosphoryl)amino)-2-ethylcyclopropane-1-carboxylate] | 12 (≈ 18.4 µM) | 6.41 |
| CCCCCCOC(=O)[C@@]1(NP(=O)(CO[C@H](C)Cn2cnc3c(N)ncnc32)N[C@]2(C(=O)OCCCCCC)C[C@H]2CC)C[C@H]1CC [Example 17, Dihexyl 1,1′-((((((R)-1-(6-amino-9H-purin-9-yl)propan-2-yl)oxy)methyl)phosphoryl)bis(azanediyl))(1R,1′R,2R,2′R)-bis(2-ethylcyclopropane-1-carboxylate)] |  | 8.85 |
| CCCCCCOC(=O)C(C)(C)NP(=O)(CO[C@H](C)Cn1cnc2c(N)ncnc21)NC1(C(=O)OCCCCCC)CCC1 (stereo partly drawn) [Example 18, Hexyl 1-((((((R)-1-(6-amino-9H-purin-9-yl)propan-2-yl)oxy)methyl)((1-(hexyloxy)-2-methyl-1-oxopropan-2-yl)amino)phosphoryl)amino)cyclobutane-1-carboxylate] | 22 (≈ 34.5 µM) | 6.57 |
| CCCCCCOC(=O)C1(NP(=O)(CO[C@H](C)Cn2cnc3c(N)ncnc32)NC2(C(=O)OCCCCCC)CCC2)CCC1 [Example 19, Dihexyl 1,1′-(((((1-(6-amino-9H-purin-9-yl)propan-2-yl)oxy)methyl)phosphoryl)bis(azanediyl))(R)-bis(cyclobutane-1-carboxylate)] | 18 (≈ 27.7 µM) | 17.3 |
| C[C@H](Cn1cnc2c(N)ncnc21)OCP(=O)(NC(C)(C)C(=O)OC1CCCC1)NC(C)(C)C(=O)OC1CCCC1 [Example 34, Dicyclopentyl 2,2′-(((((1-(6-amino-9H-purin-9-yl)propan-2-yl)oxy)methyl)phosphoryl)bis(azanediyl))(R)-bis(2-methylpropanoate)] | 59 (≈ 99.4 µM) | 3.67 |
| CC(C)COC(=O)C(C)(C)NP(=O)(CO[C@H](C)Cn1cnc2c(N)ncnc21)NC(C)(C)C(=O)OCC(C)C [Example 35, Diisobutyl 2,2′-(((((1-(6-amino-9H-purin-9-yl)propan-2-yl)oxy)methyl)phosphoryl)bis(azanediyl))(R)-bis(2-methylpropanoate)] | 54 (≈ 94.8 µM) | 4.35 |
| CCCOC(=O)C(C)(C)NP(=O)(CO[C@H](C)Cn1cnc2c(N)ncnc21)NC(C)(C)C(=O)OCCC [Example 36, Dipropyl 2,2′-(((((1-(6-amino-9H-purin-9-yl)propan-2-yl)oxy)methyl)phosphoryl)bis(azanediyl))(R)-bis(2-methylpropanoate)] | 60 (≈ 111 µM) | 8.96 |
| C[C@H](Cn1cnc2c(N)ncnc21)OCP(=O)(NC(C)(C)C(=O)OC1CCC2(CCC2)CC1)NC(C)(C)C(=O)OC1CCC2(CCC2)CC1 (stereo partly drawn) [Example 63, Di(spiro[3.5]nonan-7-yl) 2,2′-(((((1-(6-amino-9H-purin-9-yl)propan-2-yl)oxy)methyl)phosphoryl)bis(azanediyl))(R)-bis(2-methylpropanoate)] |  | 2.22 |
| CCCCCCOC(=O)C(NP(=O)(CO[C@H](C)Cn1cnc2c(N)ncnc21)NC(C(=O)OCCCCCC)(C1CC1)C1CC1)(C1CC1)C1CC1 [Example 64, Dihexyl 2,2′-(((((1-(6-amino-9H-purin-9-yl)propan-2-yl)oxy)methyl)phosphoryl)bis(azanediyl))(R)-bis(2,2-dicyclopropylacetate)] | < 1 | 7.34 |
| CCCCCCOC(=O)C(C)(C)NP(=O)(CO[C@H](C)Cn1cnc2c(N)ncnc21)NC(C)(C)C(=O)OCC1(F)CC1 (stereo partly drawn) [Example 78, (1-Fluorocyclopropyl)methyl 2-((((((R)-1-(6-amino-9H-purin-9-yl)propan-2-yl)oxy)methyl)((1-(hexyloxy)-2-methyl-1-oxopropan-2-yl)amino)phosphoryl)amino)-2-methylpropanoate] | 60 (≈ 97.8 µM) |  |
| CCCCCCOC(=O)C(C)(C)NP(=O)(CO[C@H](C)Cn1cnc2c(N)ncnc21)NC(C)(C)C(=O)OCC(C)(C)OC (stereo partly drawn) [Example 79, Hexyl 2-((((((R)-1-(6-amino-9H-purin-9-yl)propan-2-yl)oxy)methyl)((1-(2-methoxy-2-methylpropoxy)-2-methyl-1-oxopropan-2-yl)amino)phosphoryl)amino)-2-methylpropanoate] | 68 (≈ 108 µM) |  |
| CCCCCCOC(=O)C(C)(C)NP(=O)(CO[C@H](C)Cn1cnc2c(N)ncnc21)NC(C)(C)C(=O)OCC12CCC(CC1)C2 (stereo partly drawn) [Example 80, Bicyclo[2.2.1]heptan-1-ylmethyl 2-((((((R)-1-(6-amino-9H-purin-9-yl)propan-2-yl)oxy)methyl)((1-(hexyloxy)-2-methyl-1-oxopropan-2-yl)amino)phosphoryl)amino)-2-methylpropanoate] | 56 (≈ 86.2 µM) |  |
| CCCCCCOC(=O)C(C)(C)NP(=O)(CO[C@H](C)Cn1cnc2c(N)ncnc21)NC(C)(C)C(=O)OC(C)C1CC1 (stereo partly drawn) [Example 81, 1-Cyclopropylethyl 2-((((((R)-1-(6-amino-9H-purin-9-yl)propan-2-yl)oxy)methyl)((1-(hexyloxy)-2-methyl-1-oxopropan-2-yl)amino)phosphoryl)amino)-2-methylpropanoate] | 61 (≈ 100 µM) |  |
| CCCCCCOC(=O)C(C)(C)NP(=O)(CO[C@H](C)Cn1cnc2c(NCc3oc(=O)oc3C)ncnc21)NC(C)(C)C(=O)OCCCCCC [Example 82, Dihexyl 2,2′-(((((1-(6-(((5-methyl-2-oxo-1,3-dioxol-4-yl)methyl)amino)-9H-purin-9-yl)propan-2-yl)oxy)methyl)phosphoryl)bis(azanediyl))(R)-bis(2-methylpropanoate)] | 10 (≈ 13.6 µM) |  |
| C[C@H](Cn1cnc2c(N)ncnc21)OCP(=O)(NC(C)(C)C(=O)O[C@H]1C[C@@H](c2ccccc2)C1)NC(C)(C)C(=O)O[C@H]1C[C@@H](c2ccccc2)C1 [Example 85, Bis((1s,3S)-3-phenylcyclobutyl) 2,2′-((((((R)-1-(6-amino-9H-purin-9-yl)propan-2-yl)oxy)methyl)phosphoryl)bis(azanediyl))bis(2-methylpropanoate)] | 6 (≈ 8.36 µM) |  |
| C[C@H](Cn1cnc2c(N)ncnc21)OCP(=O)(NC(C)(C)C(=O)O[C@H]1CC[C@H](c2ccccc2)CC1)NC(C)(C)C(=O)O[C@H]1CC[C@H](c2ccccc2)CC1 [Example 93, Bis(trans-4-phenylcyclohexyl) 2,2′-((((((R)-1-(6-amino-9H-purin-9-yl)propan-2-yl)oxy)methyl)phosphoryl)bis(azanediyl))bis(2-methylpropanoate)] | 1 (≈ 1.29 µM) | 5.47 |
| CCCCCCOC(=O)C(C)(C)NP(=O)(CO[C@H](C)Cn1cnc2c(NC(=O)OCC(=O)OCc3oc(=O)oc3C)ncnc21)NC(C)(C)C(=O)OCCCCCC [Example 95, Dihexyl 2,2′-(((((1-(6-(((2-((5-methyl-2-oxo-1,3-dioxol-4-yl)methoxy)-2-oxoethoxy)carbonyl)amino)-9H-purin-9-yl)propan-2-yl)oxy)methyl)phosphoryl)bis(azanediyl))(R)-bis(2-methylpropanoate)] | 60 (≈ 71.4 µM) | 14.8 |
| CCCCCCOC(=O)C(C)(C)NP(=O)(CO[C@H](C)Cn1cnc2c(NC(=O)[C@H]3CCC(=O)O3)ncnc21)NC(C)(C)C(=O)OCCCCCC [Example 96, Dihexyl 2,2′-((((((R)-1-(6-((R)-5-oxotetrahydrofuran-2-carboxamido)-9H-purin-9-yl)propan-2-yl)oxy)methyl)phosphoryl)bis(azanediyl))bis(2-methylpropanoate)] | 92 (≈ 125 µM) | 11 |
